Patent US20090325874A1, “Inhibition of inositol 1,4,5-triphosphate receptor calcium channel/cytochrome c interactions and uses thereof” (priority 2008, published 2009)

Key:
[1] = test system: caspase-3 activation in Jurkat cells co-cultured with SW620 cells; experiment: Caspase-3 like (DEVDase) activity in Jurkat cells co-cultured with SW620 cells; format: cell-based, human; settings: for caspase-3 activation in Jurkat cells: 24 h co-culture with SW620; for Jurkat cell (lymphocyte) apoptosis induced by co-culture with SW620 cells: summary statement, co-culture with Fas ligand-expressing SW620 colon cancer cells
Experimental: (§1) Jurkat T-lymphoma (clone E6-1) and SW620 colon adenocarcinoma cells were purchased and cultured according to the guidelines of American Type Culture Collection (ATCC, Manassas, Va.). SW620 cells grow as adherent monolayers, whereas Jurkat cells grow in suspension. Jurkat cells were co-cultured with SW620 cells by exchanging the culture medium of SW620 cells (80 percent confluent in a 10 cm dish) with 10 ml Jurkat medium containing 1×10^6 Jurkat cells. Co-cultures were incubated for 24 h, after which cell death or caspase activity was determined in Jurkat cells. Pre-loading 1,2-bis(o-aminophenoxy)ethane-N,N,N′,N′-tetraacetic acid (BAPTA) or B-IP3RCYT into Jurkat cells was performed for 30 min at room temperature. Free BAPTA-AM or B-IP3RCYT was removed by media exchange prior to addition to SW620 cells. XestC was similarly pre-incubated with Jurkat cells prior to co-culturing, and remained in the culture medium for the duration of the co-culture experiment.
Caspase activity and cell death were determined specifically in Jurkat cells by removing the medium containing the Jurkat cells into a fresh tube. An additional rinse with culture medium was used to fully recover the Jurkat cells. Adherent SW620 cells remained attached to the culture plate after this rinse as determined by light microscopy. Jurkat cells were pelleted by centrifugation at 1000 g and cell death was determined by propidium iodide staining as described (12). Fluorometric determination of DEVDase (caspase-3 like) activity was performed on lysates prepared from Jurkat cells as described (12, 15).

[2] = test system: Jurkat cells co-cultured with SW620 cells; experiment: Jurkat cell death by propidium iodide staining after co-culture with SW620 cells; format: cell-based, human; set-up: dose or concentration left out as unconfirmed; settings: XestC pre-incubation, 24 h co-culture
Experimental: as §1
Caspase activity and cell death were determined specifically in Jurkat cells by removing the medium containing the Jurkat cells into a fresh tube. […] Adherent SW620 cells remained attached to the culture plate after this rinse as determined by light microscopy. Jurkat cells were pelleted by centrifugation at 1000 g and cell death was determined by propidium iodide staining as described (12). […]

Row | Structure (SMILES) | caspase-3 activation in Jurkat cells ([1]; 100 and 500 nM BAPTA-AM pre-loaded 30 min, p<0.05 vs no pre-treatment) | Jurkat cell (lymphocyte) apoptosis induced by co-culture with SW620 cells [1] | caspase-3 activation in Jurkat cells ([1]; XestC 1 to 20 micromolar, pre-incubated and kept in medium) | Jurkat cell death induced by co-culture with SW620 cells [2]
1 | CC(=O)OCOC(=O)CN(CC(=O)OCOC(C)=O)c1ccccc1OCCOc1ccccc1N(CC(=O)OCOC(C)=O)CC(=O)OCOC(C)=O [BAPTA-AM, aminomethoxy ester form of BAPTA (1,2-bis(o-aminophenoxy)ethane-N,N,N′,N′-tetraacetic acid] | Significant attenuation of caspase-3 activation | – | – | –
2 | O=C(O)CN(CC(=O)O)c1ccccc1OCCOc1ccccc1N(CC(=O)O)CC(=O)O [BAPTA, 1,2-bis(o-aminophenoxy)ethane-N,N,N′,N′-tetraacetic acid] | – | dose-dependently inhibited Jurkat cell apoptosis | – | –
3 | C1CCC[C@H]2CCCN3CC[C@@H](CCCCCC[C@@H]4CCCN5CC[C@@H](CC1)O[C@@H]45)O[C@@H]23 [XestC, Xestospongin C] | – | dose-dependently inhibited Jurkat cell apoptosis | inhibited caspase-3 activation | potently blocked Jurkat cell death
